Laboratory results taken from US12605346B2, “Composition containing curcumin compound, and method for producing same” (THERABIOPHARMA INC., priority 2020, dated 2026).

Legend:
[1] = Plasma curcumin concentration (AUC and Cmax) after administration to rats; type: in vivo
Procedure: The plasma curcumin concentration was measured by the following method using heparin plasma obtained by collecting about 0.2 mL of blood from the jugular vein of test animals (rats) without anesthesia at 0.25 hours, 0.5 hours, 1 hour, 2 hours, 4 hours, and/or 6 hours after start of administration.
To 20 μL of the collected plasma, 100 μL of 0.1 M acetate buffer (pH 5.0) and 10 μL of β-glucuronidase solution (about 68,000 units/mL) were added. The mixture was kept at 37° C. for 1 hour. Subsequently, 10 μL of 50% (v/v) methanol containing 20 ng/mL of Mepronil, an internal standard, and 0.5 mL of chloroform were added. The mixture was stirred with a vortex mixer for 1 minute and then mixed with an ultrasonic generator for 15 minutes to perform an extraction process. The extraction process liquid was separated into a chloroform layer and an aqueous layer by centrifugation (13,000×g, 5 min, room temperature). The separated aqueous layer was further subjected to an extraction process in which extraction was performed by adding chloroform in the same manner as described above. Next, the chloroform layer was collected and dried to solid by distilling the solvent off using a vacuum centrifugal concentrator, and 100 μL of 50% (v/v) methanol was added thereto, followed by centrifugation (13,000×g, 5 min, room temperature). The supernatant was then collected.
The plasma curcumin concentration was measured by analyzing 2 μL of the prepared supernatant using LC-MS/MS (available from Bruker). […]
The calibration curve used to quantitatively determine the curcumin content in the sample was obtained by performing measurement under the same conditions as described above using various standard solutions (curcumin concentration: 0.9 to 225 ng/mL) prepared by adding 10 μL of a 50% ethanol solution containing 20 ng/mL of Mepronil to 90 μL of a 50% (v/v) methanol solution (curcumin standard solution) containing 1.0, 2.0, 3.9, 7.8, 15.6, 31.3, 62.5, 125, or 250 ng/mL of curcumin.

[2] = normal conditions (temperature 20° C. to 35° C., humidity 40% to 70%) till 6 months; cited from earlier work

COc1cc(/C=C/C(=O)/C=C(O)/C=C/c2ccc(O)c(OC)c2)ccc1O [Comparative Example 2, curcumin]
Cmax ([1]; rat, oral, plasma curcumin after β-glucuronidase treatment): 85 ng/mL
AUC ([1]; rat, oral, plasma curcumin after β-glucuronidase treatment, 0 to 6 hrs): 292 ng·h/mL
Cmax relative to Comparative Example 1 (value in parentheses) ([1]; ratio to commercial curcumin formulation (Comparative Example 1 = 1.0)): 0.84 times

COc1cc(/C=C/C(=O)/C=C(O)/C=C/c2ccc(O)c(OC)c2)ccc1O [amorphous curcumin, curcumin]
Storage stability of sample stored in a container [2]: generally stable
